Data on one molecule can be found in US8354412B2, “Beta-3 receptor ligands and their use in therapy” (Universita' Degli Studi di Bari, priority 2006, dated 2013).

In assay [1] the target is T1, cloned human β2-adrenergic receptor (Homo sapiens, UniProt P07550).
T1 construct: expressed in transfected cells; host or cells: CHO (membranes)
Briefly: [3H]-dihydroalprenolol binding on CHO cell membranes, β2-adrenergic receptor. The conditions noted are these: compound at 10 μM.

The target of assay [2] is T2, cloned human beta-3 adrenergic receptor (Homo sapiens, UniProt P13945).
T2 construct: expressed in transfected cells; host or cells: CHO-K1
T2 sequence (P13945 whole entry): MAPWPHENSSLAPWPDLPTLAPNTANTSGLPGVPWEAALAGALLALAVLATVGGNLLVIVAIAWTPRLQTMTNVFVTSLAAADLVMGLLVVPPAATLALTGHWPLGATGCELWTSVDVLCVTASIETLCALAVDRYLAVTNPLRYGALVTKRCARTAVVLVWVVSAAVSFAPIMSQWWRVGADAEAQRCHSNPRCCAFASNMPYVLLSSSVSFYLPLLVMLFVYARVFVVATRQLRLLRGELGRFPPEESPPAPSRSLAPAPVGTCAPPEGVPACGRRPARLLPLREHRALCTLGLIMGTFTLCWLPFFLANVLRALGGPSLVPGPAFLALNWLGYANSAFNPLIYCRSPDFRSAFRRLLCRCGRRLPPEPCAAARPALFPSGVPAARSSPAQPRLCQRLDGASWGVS
Briefly: cAMP accumulation (DELFIA cAMP-Eu assay) in CHO-K1 cells expressing the beta-3 adrenergic receptor. The class given is cell-based. As to the method: The determination of the beta-3 adrenergic activity of the compounds of general formula (I) was performed by measuring the levels of cAMP in cell lines of CHO-K1 that express the cloned human beta-3 adrenergic receptor. The accumulation of cAMP is directly correlated to the beta-3 adrenergic activity of the compound and is a predictive measure of the effectiveness of the ligand. The accumulation of cAMP produced by the compounds 1a-1h was determined using the Dissociation Enhanced Lanthanide Fluorescence Immunoassay (DELFIA®, Gabriel, D.; Vernier, M.; Pfeifer, M. J.; Dasen, B.; Tenaillon, L.; Bouhelal, R. Assay and Drug Development Technologies 2003, 1, 291-303), endowed with greater sensitivity and greater accuracy than [α-^32P] radioisotope methods (Hoffmann, C.; Leitz, M. R.; Obendorf-Maass, S.; Lohse, M. J.; Klotz, K.-N. Naunyn-Schmiedeberg's Arch. Pharmacol. 2004, 369, 151-159) or [^3H] (Nannies, K. M.; Briend-Sutren, M. M.; Emorine, L. J.; Delavier-Klutchko, C.; Marullo, S.; Strosberg, A. D. Eur. J. Biochem. 1991, 196, 357-361) of determining the levels of cAMP in cell lines.
(§1) The cell lines of “Chinese hamster ovary” (CHO) that individually express the three subtypes of the human adrenergic receptor (β1, β2 or β3 were grown at 37° C. in an atmosphere composed of 5% of CO2 and 95% of air in a culture medium of Dulbecco's Modified Eagle Medium with a nutrient mixture of F12 (DMEM/F12) supplemented with 10% of bovine fetal Serum, 2 mM of L-glutamine, 100 units/ml of penicillin G and 100 μg/ml of […].
The DELFIA test (Dissociation Enhanced Lanthanide […] Immuno Assay) used for measuring the levels of cAMP was performed according to the protocol supplied by PerkinElmer Life Science. The optimization of the experimental conditions (quantity of cells, times of incubation) is reported below.
A plate of confluence cells was trypsinized and the cells were resuspended in the aforementioned culture medium, sown at a concentration of 50000 cells/200 μl per well in a 96-well plate and cultivated overnight in a CO2 incubator. The culture medium was then aspirated from every well and substituted with 100 μl of culture substrate without serum, preheated at 37° C. The plate was then put back into a CO2 incubator for 30 mins at 37° C. 50 μl of IBMX (3-isobutyl-1-methylxanthine) 1 mM, an inhibitor of the phosphodiesterase was then added to all the wells. In some wells 50 μl of forskolin (compound used for the validation of the DELFIA) was added at different concentrations (100 nM, 500 nM, 1 μM, 10 μM, 50 μM) and in the other wells 50 μl of the compounds to be tested at the same concentrations as the forskolin; the plate was then again incubated for 30 min at 37° C. The cells, at this point, were lysed and incubated at room temperature for 5 min. The plate was used immediately for measuring the levels of cAMP or stored at 4° C. until the measurement was carried out. The fluorescence was determined using a multilabel time-resolved fluorimetry technique performed on a PerkinElmer 1420 Victor®. The excitation and emission wavelengths were 340 nm and 615 nm respectively.

The target in assay [3] is T3, cloned human β1-adrenergic receptor (Homo sapiens, UniProt P08588).
T3 construct: expressed in transfected cells; host or cells: CHO (membranes)
T3 sequence (P08588 whole entry): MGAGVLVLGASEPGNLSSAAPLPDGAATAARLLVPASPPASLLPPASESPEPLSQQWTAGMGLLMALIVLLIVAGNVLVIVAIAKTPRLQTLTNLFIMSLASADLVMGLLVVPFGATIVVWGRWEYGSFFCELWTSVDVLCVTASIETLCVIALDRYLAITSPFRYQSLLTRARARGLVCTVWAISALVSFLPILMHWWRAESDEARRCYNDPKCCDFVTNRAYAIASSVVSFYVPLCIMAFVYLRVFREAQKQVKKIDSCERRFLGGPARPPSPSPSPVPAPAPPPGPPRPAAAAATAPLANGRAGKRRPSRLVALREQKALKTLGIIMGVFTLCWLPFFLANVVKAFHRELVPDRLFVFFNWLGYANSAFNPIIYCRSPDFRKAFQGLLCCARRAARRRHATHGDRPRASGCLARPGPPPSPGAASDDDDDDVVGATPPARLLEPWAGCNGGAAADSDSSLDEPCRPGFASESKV
The experiment in a line: [3H]-dihydroalprenolol binding on CHO cell membranes, β1-adrenergic receptor. The conditions noted are these: human β1; Cheng-Prusoff; 4 nM [3H]-dihydroalprenolol; read-out: Binding Ki, β1. As to the method: as §1
(§2) The preconfluence cells were washed with cold PBS, removed from the surface of the plate, collected in cold lysis buffer (10×10^6/ml; 5 mM Tris/HCl, 2 mM EDTA, pH 7.4 at 4° C.) and homogenized with a Brinkmann Polytron (5 for 3×10 secs). The cell membranes obtained were then […] for 10 mins at 4° C. at 1000 g. The supernatant was centrifuged at 10000 g for 30 min. at 4° C. The resultant membrane pellet was resuspended in cold incubation buffer (50 mM Tris/HCl, 10 mM MgCl2, pH 7.4 for the binding experiments on the β1-adrenergic receptors; 50 mM Tris/HCl, pH 7.4 for the binding experiments of on the β2-adrenergic receptors) and its protein content was then determined. The membrane suspension obtained was used immediately or stored at −80° C. until used in the binding experiments.
(§3) The saturation experiments were conducted by incubating the cell membranes (50 μg of protein) in 500 μl of incubation buffer, containing increasing concentrations of [^3H]-dihydroalprenolol (0.1 nM, 0.5 nM, 1 nM, 3 nM, 5 nM, 10 nM). The β1-adrenergic receptors were incubated at 30° C. for 30 min. while the incubation lasted 90 min. in the case of the β2-adrenergic receptor. […] The filters were then washed (3×1 ml) with cold incubation buffer. The residual radioactivity of the filters was measured using a Beckmann LS6500 Multi-purpose scintillator.
(§4) The competitive experiments were conducted by incubation of 50 μg of protein with increasing quantities of the compound under examination (from 10^−9M to 10^−4M) and 4 nM [^3H]-dihydroalprenolol for the β1-adrenergic receptor or 0.4 nM for the β2-adrenergic receptor, in a total volume of 500 μl of incubation buffer.

For assay [4], the target named is T1, cloned human β2-adrenergic receptor. The experiment in a line: [3H]-dihydroalprenolol binding on CHO cell membranes, β2-adrenergic receptor. The note with it: human β2; Cheng-Prusoff; 0.4 nM [3H]-dihydroalprenolol; read-out: Binding Ki, β2. As to the method: as §1, §2, §3, §4
Assay [5] concerns the target T3, cloned human β1-adrenergic receptor. Briefly: [3H]-dihydroalprenolol binding on CHO cell membranes, β1-adrenergic receptor. The note with it: compound at 10 μM.

As usually defined, the EC50 is the concentration that produces a half-maximal response. The low end stands for an effect from little substance, the high end for a need for much substance. What is called Ki is the equilibrium dissociation constant of an inhibitor or competing ligand from its target.

T1 sequence (P07550 whole entry): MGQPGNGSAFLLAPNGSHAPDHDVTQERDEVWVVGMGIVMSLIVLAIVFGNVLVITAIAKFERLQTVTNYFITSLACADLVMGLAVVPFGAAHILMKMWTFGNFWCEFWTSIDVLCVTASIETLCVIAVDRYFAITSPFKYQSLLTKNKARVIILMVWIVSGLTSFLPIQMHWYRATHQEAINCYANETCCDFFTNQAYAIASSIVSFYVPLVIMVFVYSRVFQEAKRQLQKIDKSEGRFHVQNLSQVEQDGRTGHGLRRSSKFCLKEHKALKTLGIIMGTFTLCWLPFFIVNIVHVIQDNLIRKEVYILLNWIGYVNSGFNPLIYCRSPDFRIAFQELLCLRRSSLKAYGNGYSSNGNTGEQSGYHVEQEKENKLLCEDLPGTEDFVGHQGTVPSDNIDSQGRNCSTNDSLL

In the case of `C[C@@H](Oc1ccc(CCN[C@H](C)[C@@H](O)c2ccccc2)cc1)C(=O)O` [Compound 1j], the “% activation at 10 μM, β2” value in assay [1] amounted to 21%. In assay [2] (concentration of ligand producing 50% of maximum cAMP accumulation, CHO-K1 human β3, SEM, n ≧ 3), the EC50 was 211 ± 10 nM. The “Intrinsic Activity (IA %)” value in assay [2] (maximum cAMP response, isoproterenol 10^−4 M = 100%, absence of agonists = 0%) is recorded as “(39) %”. For the same molecule, the figures for the Ki in assay [3] and in assay [4] were above 7 µM and above 5 µM, respectively. For the same molecule, in assay [5], the “% activation at 10 μM, β1” value was 20%.
